The values below come from US7576085B2, “Imidazopyrazines as cyclin dependent kinase inhibitors” (Schering Corporation, priority 2002, dated 2009).

The target in data set [1] is T1, CDK2 (cyclin A or cyclin E) (Homo sapiens, UniProt P24941).
T1 construct: The expressed protein was approximately 34 kDa in size; made in house; host or cells: SF9 insect cells (recombinant baculovirus, pFASTBAC)
The data set can be described thus: CDK2 in vitro kinase assay (cyclin A or cyclin E dependent), SPA with biotinylated Histone H1 peptide. Format: biochemical. The settings on record: for IC50: CDK2 with cyclin A or cyclin E, 33P-ATP SPA, 1 hour at room temperature; for inhibition at 0.05 µg/mL: compound at 0.05 ug/mL, read-out: % INH @ 0.05 ug/mL; for inhibition at 0.5 µg/mL: compound at 0.5 ug/mL, read-out: % INH @ 0.5 ug/mL.

One may read the melting point as the temperature, or range, at which the solid turns liquid. Consider `Cc1cnc2c(Nc3ccccc3)nccn12`, for which the melting point lay in the range of 182 to 184 °C. For the molecule `Brc1cnc2c(Nc3ccccc3)nc(-c3ccccc3)cn12`, the melting point is 169 to 170 °C. Molecule `Cc1cnc2c(NCc3ccncc3)nccn12` registered a melting point of 183 to 185 °C.

By IC50 is commonly meant the concentration needed to halve the response being measured. Molecule `c1ccc(-c2cn3c(-c4ccccc4)cnc3c(NCc3cccnc3)n2)cc1` had a half-maximal inhibitory concentration (IC50) in data set [1] of 6700 nM. Turning to `Ic1cnc2c(NCc3cccnc3)nc(-c3ccccc3)cn12`, the melting point lay in the range of 204 to 206 °C.

`Ic1cnc2c(NCc3ccncc3)nc(-c3ccccc3)cn12` displayed a melting point of 139 to 141 °C. `Clc1ccccc1-c1cn2c(Br)cnc2c(NCCCn2ccnc2)n1`: in data set [1], the inhibition at 0.05 µg/mL worked out at 37.5% and the inhibition at 0.5 µg/mL amounted to 29.4%. Molecule `Brc1cnc2c(NCCc3cccnc3)nc(-c3ccccc3)cn12` showed a melting point of 120 to 122 °C. For the molecule `Cc1cnc2c(NCc3ccncc3)nccn12` [drawing 712], in data set [1], the midpoint of inhibition, the IC50, lay at 22500 nM. In other words, the double-digit micromolar range.

`O=C(c1cccc(C(F)(F)F)c1)N1CCC(Nc2nc(-c3ccccc3Cl)cn3c(Br)cnc23)CC1` registered a melting point of 175 to 177 °C.

Regarding `CC(CO)Nc1nc(-c2ccccc2Cl)cn2c(Br)cnc12` (stereo not shown), in data set [1], the midpoint of inhibition, the IC50, lay at 200 nM; the inhibition at 0.05 µg/mL worked out at 63%; the inhibition at 0.5 µg/mL is 92.7%. For the molecule `Ic1cnc2c(NCc3ccncc3)nc(-c3ccccc3)cn12` [drawing 714], in data set [1], the IC50 came to 530 nM. In other words, the sub-micromolar range. `Cc1cnc2c(NCc3ccccc3)nccn12` came in with a melting point of 152 to 154 °C.

Molecule `Cc1cnc2c(NC(c3ccccc3)c3ccccc3)nccn12` came in with a melting point of 186 to 188 °C.

In turn, `Brc1cnc2c(NCCc3cccnc3)nc(-c3ccccc3)cn12` [drawing 713] yielded an IC50 in data set [1] of 4180 nM.

For the molecule `Clc1ccccc1-c1cn2c(Br)cnc2c(NCc2cccnc2)n1`, in data set [1], the IC50 amounted to 240 nM, the inhibition at 0.05 µg/mL worked out at 47.4% and the inhibition at 0.5 µg/mL was found to be 88.6%. On to `Clc1ccccc1-c1cn2c(Cl)cnc2c(NCc2cccnc2)n1`, for which the melting point fell in the range of 127 to 129 °C.

For `Clc1ccccc1-c1cn2c(Br)cnc2c(NCCCn2cccc2)n1`, in data set [1], the inhibition at 0.05 µg/mL was 42.2% and the inhibition at 0.5 µg/mL worked out at 48.8%. As to `Clc1ccccc1-c1cn2c(I)cnc2c(NCc2cccnc2)n1`, it took 230 nM to reach half-maximal inhibition in data set [1] (IC50).

`Clc1ccccc1-c1cn2c(I)cnc2c(NCc2ccncc2)n1` gave a melting point of 162 to 164 °C.

Molecule `Cc1cnc2c(Nc3ccccc3)nccn12` [drawing 711] had an IC50 in data set [1] of 15000 nM.

The molecule `Cc1cnc2c(NCCc3ccncc3)nccn12` came in with a melting point of 130 to 132 °C. On the same count and under the same terms, the figure for `COCCNc1nccn2c(C)cnc12` is 104 to 105 °C.

On to `COCCCNc1nc(-c2ccccc2Cl)cn2c(Br)cnc12`, for which, in data set [1], the inhibition at 0.05 µg/mL was 30.7% and the inhibition at 0.5 µg/mL came to 71.5%. In turn, `Cc1cnc2c(NCc3cccnc3)nccn12` displayed a melting point of 143 to 145 °C. With `O=C1CCCN1CCCNc1nc(-c2ccccc2Cl)cn2c(Br)cnc12`, in data set [1], the inhibition at 0.05 µg/mL is 30.7% and the inhibition at 0.5 µg/mL was 67.8%. As for `Clc1ccccc1-c1cn2c(Br)cnc2c(NCc2ccncc2)n1`, the half-maximal inhibitory concentration (IC50) in data set [1] was determined as 490 nM. In the case of `FC(F)(F)c1ccc(CNc2nc(-c3ccccc3)cn3c(Br)cnc23)cn1`, in data set [1], the IC50 is 4550 nM. `Clc1ccccc1-c1cn2c(Cl)cnc2c(NCc2cccnc2)n1` [drawing 718]: half-maximal inhibition in data set [1] (IC50) required 430 nM. As to `Brc1cnc2c(NCCc3ccncc3)nc(-c3ccccc3)cn12`, the melting point was 177 to 179 °C. Still for that read-out and setting: the figure for `Brc1cnc2c(NC3CCCCC3)nc(-c3ccccc3)cn12` is 145 to 146 °C. In turn, `CC(=O)c1cnc2c(NCc3cccnc3)nc(-c3ccccc3)cn12` yielded an IC50 in data set [1] of 4700 nM.
